Assay [1] has as its target T1, human B1R receptor (hB1R) (Homo sapiens, UniProt P46663).
T1 construct: host or cells: CHO K1 cells
T1 sequence (P46663 1-353): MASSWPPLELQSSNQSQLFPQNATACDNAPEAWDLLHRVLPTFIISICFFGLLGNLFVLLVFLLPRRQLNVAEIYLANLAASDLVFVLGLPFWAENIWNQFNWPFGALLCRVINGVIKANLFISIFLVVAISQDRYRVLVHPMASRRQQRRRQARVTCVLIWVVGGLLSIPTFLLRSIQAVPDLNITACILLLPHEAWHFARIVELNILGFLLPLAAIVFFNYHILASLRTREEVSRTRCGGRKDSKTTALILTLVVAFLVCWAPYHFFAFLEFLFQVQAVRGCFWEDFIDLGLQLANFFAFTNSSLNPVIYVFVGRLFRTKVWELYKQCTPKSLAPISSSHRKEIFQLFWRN
As to the kind of experiment: FLIPR Ca2+ assay on human bradykinin 1 receptor (CHO K1 hB1R cells). The assay is classed as cell-based. As to conditions: test substance 10 μM; CHO K1 cells with human B1R gene; agonist Lys-Des-Arg9-bradykinin 0.5 nM; compared to maximum achievable inhibition. The gist of the method: (§1)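 CHO K1 cells stably expressing human or rat B1R were loaded with Fluo-4 and tested at 10 μM compound. Ca²⁺ signal was read in FLIPR as % activation versus agonist. After 10 min, agonist was added (hB1R: Lys-Des-Arg9-bradykinin 0.5 nM; rB1R: Des-Arg9-bradykinin 100 nM), and % inhibition was taken relative to maximum achievable inhibition.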

In assay [2] the target is T2, B1R receptor of rats (rB1R) (Rattus norvegicus, UniProt P97583).
T2 construct: host or cells: CHO K1 cells
T2 sequence (P97583 1-337): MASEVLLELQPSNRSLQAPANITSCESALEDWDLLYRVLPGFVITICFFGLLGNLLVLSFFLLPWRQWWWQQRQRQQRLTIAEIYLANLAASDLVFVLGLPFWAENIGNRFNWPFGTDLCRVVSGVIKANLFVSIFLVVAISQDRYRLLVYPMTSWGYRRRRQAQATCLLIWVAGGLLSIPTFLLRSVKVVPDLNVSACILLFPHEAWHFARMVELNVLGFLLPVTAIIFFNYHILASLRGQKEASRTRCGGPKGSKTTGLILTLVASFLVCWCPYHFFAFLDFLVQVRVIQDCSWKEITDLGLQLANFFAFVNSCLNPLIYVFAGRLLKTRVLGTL
As to the kind of experiment: FLIPR Ca2+ assay on rat bradykinin 1 receptor (CHO K1 rB1R cells). The assay is classed as cell-based. The settings on record: test substance 10 μM; CHO K1 cells with B1R gene of rats; agonist Des-Arg9-bradykinin 100 nM; compared to maximum achievable inhibition. The gist of the method: as §1

For `CN1CCN(CCCc2ccc3n2CCN(C(=O)CC(NS(=O)(=O)c2ccc4ccccc4c2)c2ccccc2)C3)CC1` (stereo not shown) [Example 13, N-(3-(6-(3-(4-methylpiperazin-1-yl)propyl)-3,4-dihydropyrrolo[1,2-a]pyrazin-2(1H)-yl)-3-oxo-1-phenylpropyl)naphthalene-2-sulfonamide], the inhibition at 10 µM was 44% in assay [1] and 100% in assay [2].

Regarding `COc1cc(C)c(S(=O)(=O)N(CCOCC(=O)N2CCn3c(CN(C)C)ccc3C2CCc2ccccc2)CC(C)C)c(C)c1C` (stereo not shown) [Example 96, N-(2-(2-(6-((dimethylamino)methyl)-1-phenethyl-3,4-dihydropyrrolo[1,2-a]pyrazin-2(1H)-yl)-2-oxoethoxy)ethyl)-N-isobutyl-4-methoxy-2,3,6-trimethyl-benzenesulfonamide], the inhibition at 10 µM in assay [1] worked out at 102%; in assay [2], 101%.

With `COc1cc(C)c(S(=O)(=O)N(CCOCC(=O)N2CCn3cccc3C2c2cccnc2)CC(C)C)c(C)c1C` (stereo not shown) [Example 19, N-isobutyl-4-methoxy-2,3,6-trimethyl-N-(2-(2-oxo-2-(1-(pyridin-3-yl)-3,4-dihydropyrrolo[1,2-a]pyrazin-2(1H)-yl)ethoxy)ethyl)benzenesulfonamide], the inhibition at 10 µM in assay [1] was 101%; in assay [2], 98%.

Consider `COc1cc(C)c(S(=O)(=O)N(CCOCC(=O)N2CCn3cccc3C2C(C)C)Cc2ccccc2)c(C)c1C` (stereo not shown) [Example 124, N-benzyl-N-(2-(2-(1-isopropyl-3,4-dihydropyrrolo[1,2-a]pyrazin-2(1H)-yl)-2-oxoethoxy)ethyl)-4-methoxy-2,3,6-trimethylbenzenesulfonamide], for which the inhibition at 10 µM in assay [1] stood at 58%; in assay [2] it was 96%.

Consider `COc1cccc(C2c3cccn3CCN2C(=O)COCCN(C)S(=O)(=O)c2c(C)cc(OC)c(C)c2C)c1` (stereo not shown) [Example 89, 4-methoxy-N-(2-(2-(1-(3-methoxyphenyl)-3,4-dihydropyrrolo[1,2-a]pyrazin-2(1H)-yl)-2-oxoethoxy)ethyl)-N,2,3,6-tetramethylbenzenesulfonamide], for which the inhibition at 10 µM in assay [1] is 100%; in assay [2], 98%.

For the compound `COc1cc(C)c(S(=O)(=O)N(C)CCOCC(=O)N2CCn3cccc3C2C)c(C)c1C` (stereo not shown) [Example 80, 4-methoxy-N,2,3,6-tetramethyl-N-(2-(2-(1-methyl-3,4-dihydropyrrolo[1,2-a]pyrazin-2(1H)-yl)-2-oxoethoxy)ethyl)benzenesulfonamide], the inhibition at 10 µM in assay [1] came out at 99%; in assay [2], 97%.

For the compound `COc1cc(C)c(S(=O)(=O)N(C)CCOCC(=O)N2CCn3cccc3C2C(C)C)c(C)c1` (stereo not shown) [Example 137, N-(2-(2-(1-isopropyl-3,4-dihydropyrrolo[1,2-a]pyrazin-2(1H)-yl)-2-oxoethoxy)ethyl)-4-methoxy-N,2,6-trimethylbenzenesulfonamide], the values for the inhibition at 10 µM in assay [1] and in assay [2] were 104% and 102%, respectively.

Take `COc1cc(C)c(S(=O)(=O)N(CCOCC(=O)N2CCn3c(CN4CCOCC4)ccc3C2c2ccccc2)Cc2ccccc2)c(C)c1C` (stereo not shown) [Example 117, N-benzyl-4-methoxy-2,3,6-trimethyl-N-(2-(2-(6-(morpholinomethyl)-1-phenyl-3,4-dihydropyrrolo[1,2-a]pyrazin-2(1H)-yl)-2-oxoethoxy)ethyl)benzene-sulfonamide]: the inhibition at 10 µM in assay [1] turned out to be 82%; in assay [2], 88%.

Consider `COc1ccc(C2c3cccn3CCN2C(=O)COCCN(C)S(=O)(=O)c2c(C)cc(OC)c(C)c2C)cc1` (stereo not shown) [Example 83, 4-methoxy-N-(2-(2-(1-(4-methoxyphenyl)-3,4-dihydropyrrolo[1,2-a]pyrazin-2(1H)-yl)-2-oxoethoxy)ethyl)-N,2,3,6-tetramethylbenzenesulfonamide], for which the results for the inhibition at 10 µM in assay [1] and in assay [2] were 101% and 100%, respectively.

Regarding `COc1cc(C)c(S(=O)(=O)N(C)CCOCC(=O)N2CCn3cccc3C2CCc2ccccc2)c(C)c1` (stereo not shown) [Example 133, 4-methoxy-N,2,6-trimethyl-N-(2-(2-oxo-2-(1-phenethyl-3,4-dihydropyrrolo[1,2-a]pyrazin-2(1H)-yl)ethoxy)ethyl)benzenesulfonamide], the inhibition at 10 µM in assay [1] worked out at 105%; in assay [2], 102%.

With `O=C(CC(NS(=O)(=O)c1ccc2ccccc2c1)c1ccccc1)N1CCn2c(CCc3ccncc3)ccc2C1` (stereo not shown) [Example 173, N-(3-Oxo-1-phenyl-3-(6-(2-(pyridin-4-yl)ethyl)-3,4-dihydropyrrolo[1,2-a]pyrazin-2(1H)-yl)propyl)naphthalene-2-sulfonamide], the inhibition at 10 µM in assay [1] came out at 20%; in assay [2], 75%.

`CCC1c2ccc(CN(C)C)n2CCN1C(=O)COCCN(C)S(=O)(=O)c1c(C)cc(C)cc1C` (stereo not shown) [Example 145, N-(2-(2-(6-((dimethylamino)methyl)-1-ethyl-3,4-dihydropyrrolo[1,2-a]pyrazin-2(1H)-yl)-2-oxoethoxy)ethyl)-N,2,4,6-tetramethylbenzenesulfonamide]: the inhibition at 10 µM in assay [1] came to 104%; in assay [2] it was 103%.

In the case of `O=C(CC(NS(=O)(=O)c1ccc2ccccc2c1)c1ccccc1)N1CCn2c(Cc3cccnc3)ccc2C1` (stereo not shown) [Example 176, N-(3-Oxo-1-phenyl-3-(6-(pyridin-3-ylmethyl)-3,4-dihydropyrrolo[1,2-a]pyrazin-2(1H)-yl)propyl)naphthalene-2-sulfonamide], the results for the inhibition at 10 µM in assay [1] and in assay [2] were 45% and 87%, respectively.

Regarding `COc1c(C)cc(S(=O)(=O)N(C)CCOCC(=O)N2CCn3cccc3C2c2ccc(Cl)nc2)c(C)c1C` (stereo not shown) [Example 30, N-(2-(2-(1-(6-chloropyridin-3-yl)-3,4-dihydropyrrolo[1,2-a]pyrazin-2(1H)-yl)-2-oxoethoxy)ethyl)-4-methoxy-N,2,3,5-tetramethylbenzenesulfonamide], the results for the inhibition at 10 µM in assay [1] and in assay [2] were 98% and 76%, respectively.

Turning to `COc1c(C)cc(S(=O)(=O)N(C)CCOCC(=O)N2CCn3cccc3C2c2ccc(C)c(C)c2)c(C)c1C` (stereo not shown) [Example 34, N-(2-(2-(1-(3,4-dimethylphenyl)-3,4-dihydropyrrolo[1,2-a]pyrazin-2(1H)-yl)-2-oxoethoxy)ethyl)-4-methoxy-N,2,3,5-tetramethylbenzenesulfonamide], the inhibition at 10 µM amounted to 58% in assay [1] and 42% in assay [2].

Take `COc1cccc(C2c3cccn3CCN2C(=O)COCCN(C)S(=O)(=O)c2cc(C)c(OC)c(C)c2C)c1` (stereo not shown) [Example 38, 4-methoxy-N-(2-(2-(1-(3-methoxyphenyl)-3,4-dihydropyrrolo[1,2-a]pyrazin-2(1H)-yl)-2-oxoethoxy)ethyl)-N,2,3,5-tetramethylbenzenesulfonamide]: the figures for the inhibition at 10 µM in assay [1] and in assay [2] were 97% and 43%, respectively.

On to `O=C(C[C@@H](NS(=O)(=O)c1ccc2ccccc2c1)c1ccccc1)N1CCn2c(nc(CN3CCCCC3)c2Cl)C1` [Example 5, (R)-N-(3-(3-chloro-2-(piperidin-1-ylmethyl)-5,6-dihydroimidazo[1,2-a]pyrazin-7(8H)-yl)-3-oxo-1-phenylpropyl)naphthalene-2-sulfonamide], for which the inhibition at 10 µM in assay [1] was found to be 99%; in assay [2], 97%.

The values are drawn from US8263598B2, “Substituted sulfonamide compounds” (Gruenenthal GmbH, priority 2008, dated 2012).
